Reference: patent US20150087604A1, “ANTI-FATTY ACID SYNTHASE POLYPEPTIDE AND USE THEREOF” (TIANJIN TOPTECH BIO-SCIENCE & TECHNOLOGY CO., LTD., priority 2011, published 2015)
Entries after “also recorded” stand apart in the source; their conditions may differ.

Legend:
NF-κB promoter = assay: Dual-luciferase reporter gene analysis, NF-κB promoter; format: cell-based; conditions: HepG2 cells; synthesized polypeptide 0.1 μM, 1 μM, 10 μM and 100 μM; 24 hr incubation
Excerpt: Hepatoma cell line HepG2 was adopted in the experiment. Because SREBP-1c is upstream transcription regulatory factor of FAS, whether there is inhibition of SREBP-1c promoter activity at the molecular level can be used to reflect the transcription state of FAS gene by reporter gene assays. Meanwhile, the detection of FAS promoter activity can directly reflect whether the transcription of FAS is inhibited or not. The nuclear factor κB (nuclear factor KB, NF-κB) is an import transcription factor, and increasing of NF-κB promoter activity indicates the increase of cell proliferation. Therefore, it can test the effects of the invention polypeptides on the proliferation of HepG2 cell by detection of NF-κB promoter activity and (3-(4,5-dimethylthiazol-2-yl)-2,5-diphenyltetrazolium bromide (MTT). […]
(7) Immediately put the EP tubes into a Luminometer (manufactured by Turner Biosystems). Within 10 sec after 2 sec balance, measured the luminescence.
(8) Added 100 μl fluorescence bleacher. […]
(9) Measured the luminescence within 10 sec.
The relative activity was the ratio of the value of the first luminescence to the value of the second luminescence.
Results shown are representative of three independent experiments according to Mean±SD, and statistical significance was calculated using Student's t test.

HepG2 cells [1] = assay: MTT assay of cell proliferation of hepatoma cells; format: cell-based; conditions: synthesized polypeptide 0.1 μM, 1 μM, 10 μM and 100 μM, 48 hr
Excerpt: Hepatoma cell line HepG2 was adopted in the experiment. Because SREBP-1c is upstream transcription regulatory factor of FAS, whether there is inhibition of SREBP-1c promoter activity at the molecular level can be used to reflect the transcription state of FAS gene by reporter gene assays. Meanwhile, the detection of FAS promoter activity can directly reflect whether the transcription of FAS is inhibited or not. The nuclear factor κB (nuclear factor KB, NF-κB) is an import transcription factor, and increasing of NF-κB promoter activity indicates the increase of cell proliferation. […]
(2) Culture the cells: Within 12 hr for adhesion of cultured cells, different amount of polypeptides plasmids from Step A (0.25 μg, 0.5 μg and 0.75 μg) or different concentrations of synthesized polypeptides from Example 1 (0.1 μM, 1 μM, 10 μM and 100 μM) were transfected with 8 wells for each concentration, and were incubated for 48 hr in the same condition. 0.3 μg pEGFP-C2 plasmids and 1 μg p-Anti-HBxP1# were cotransfected, and using a fluorescence microscope to check for cells containing the GFP plasmid after 24 hr to make sure the percentage of cells that contain GFP is over 70%; […]
(5) Comparison: Read in an ELISA reader at 490 nm to measure the absorbance for each well. Results were calculated by using Student's t-test.

[2] = Polypeptide drugs acute toxicity test; format: in vivo, Kunming white mice; conditions: 1 g/kg tail intravenous injection; observed 24 hr
Procedure: Control group and experimental group contained 10 Kunming white mice, with 5 females and 5 males, respectively. Experimental group injected Anti-FAS-P18 with the concentration of 1 g/kg (2.5 mg dried polypeptide drug solved in 0.125 ml ddH2O) by tail intravenous injection; control group, injected 0.25 ml ddH2O. Consecutively observed the mice for 24 hr after injection.

HepG2 cells [3] = assay: Inoculation experiment in nude mice (HepG2 tumor growth); format: in vivo; conditions: 10 mg/kg, once in two day, total 10 times
Procedure: (§1) Suspended the HepG2 cells at exponential phase by treating with trypsin, and counted the number of cells to dilute to 1×10^7 cells/ml with physiological saline, and then store in the ice water. 12 Mice used were 4- to 6-week-old BALB/C females, and were randomly divided into two groups: (1) Control group, injected 0.2 ml diluted cells to the armpit of left forelimb for each mouse, and only injected 0.5 ml ddH2O (without polypeptide drugs); (2) experimental group (the treatment dose was 10 mg/kg), injected 0.2 ml diluted cells to the armpit of left forelimb for each mouse, and within 7 days after the injection, tumor volume (V=L×W^2×0.5) reached to 100 mm^3. And then, injected the above mentioned polypeptide drugs (dried polypeptide drug solved in 0.5 ml ddH2O) once in two day, total 10 times, and recorded the tumor volume before injection. Within 24 hr after the last dose, weighted the mice, and killed the mice to weight the tumor tissue, anti-tumor rate was calculated as follow: […]

[4] = Weight of nude mice in the inoculation experiment; format: in vivo
Procedure: as §1

Gly-Gly-Cys-Arg-His-Lys-Leu-Val-Cys-Ala-Pro-Ala-Pro-Cys-Asn-Phe-Phe-Thr [Anti-FAS-P18]
activity of NF-κB promoter (NF-κB promoter): inhibits the activity of NF-κB promoter in HepG2 cells in a dose-dependent manner
cell proliferation (MTT) (HepG2 cells [1]): inhibits cell proliferation in the HepG2 cells in a dose-dependent manner
abnormal behaviors after injection [2]: do not have abnormal behaviors
changes in weight compared with control group [2]: no abnormal changes in weight compared with control group
growth and proliferation of HepG2 cells in nude mice (HepG2 cells [3]): inhibits the growth and proliferation in the HepG2 cells; also recorded: inhibits the growth and proliferation of the HepG2 cells
Anti-tumor rate (%) (HepG2 cells [3]; from tumor weight vs control): 43.06%
Tumor Weight (X ± S, g) (HepG2 cells [3]; within 24 hr after the last dose): 0.42 ± 0.09 g
impact on the weight of nude mice ([4]; 10 mg/kg, once in two day, total 10 times): no significantly impact on the weight of nude mice
Weight (X ± S, g) After dose ([4]; body weight of mice after dose, 10 mg/kg, once in two day, total 10 times): 21.83 ± 0.82 g
Weight (X ± S, g) Before dose ([4]; body weight of mice before dose, experimental group 10 mg/kg): 15.33 ± 0.75 g
